Tested on: hPSC lines P11032, SA181 and P11012
Assay: DE differentiation of 3 hPSC lines with 5-aza-2-deoxycytidine or 5-azacytidine, qRT-PCR marker expression (Example 5)
Type: cell-based, human
Settings: 1 μM on day 2-3
Protocol: Following the basic protocols A (hPSC lines P11032, and SA181) or B (hPSC line P11012), cells derived from 3 different hPSC lines were treated with either 10 nM 5-aza-2-deoxycytidine or 1 μM 5-azacytidine on day 2-3 during the hPS differentiation into definitive endodem.
For analysis of mRNA expression, hESC- and hiPSC-derived DE-cells were harvested on day 7 of the protocol and gene expression was analysed using qRT-PCR, normalised to the house-keeping gene CREBBP, and the results presented as relative quantification normalised to a calibrator.

Nc1ncn([C@@H]2O[C@H](CO)[C@@H](O)[C@H]2O)c(=O)n1 [5-azacytidine]
mRNA expression of the DE marker Cxcr4 (day 7): No significant changes | mRNA expression of the DE marker Sox17 (day 7): No significant changes | Nanog mRNA (day 7, vs without treatment): significantly decreased | Oct4 mRNA (day 7, vs without treatment): significantly decreased | Homogeneity of derived DE population (lines give heterogeneous DE if untreated): allowed derivation of a homogeneous DE population
